Consider 4 compounds from US4361553A, “Therapeutic uses of dynorphin” (Regents of the University of California, priority 1981, dated 1982).

Data set [1] has as its system morphine dependent mice. In words: Spontaneous withdrawal jumping after removal of morphine pellets (Example IV). Particulars: compared with saline. The format is in vivo.
Protocol: Mice which jumped were separated and received 4 μl of saline i.c.v. or different doses of dynorphin, and tested 30 min and then 60 min after injection.
Data set [2] relates to morphine tolerant mice. Briefly: Tail-flick analgesia, morphine s.c. with or without dynorphin-(1-13) i.c.v., morphine tolerant group (Example I). The conditions noted are these: dynorphin alone up to 50 μg/mouse. It counts as in vivo. As for the experimental part: (§1) Male simonesen ICR mice (Gilroy, CA) weighing between 20-25 g were housed for at least one day prior to experimentation, and used within 5 days. Each mouse was used only once.
(§2) Analgesia was measured by the tail-flick method of D'Amour and Smith, J.Pharmac.Exp.Ther., 72, pp. 74-79 (1941), incorporated herein by reference, as modified by Tulunay and Takemori, J.Pharmac.Exp.Ther., 190, pp. 395-400 (1974), incorporated herein by reference. […] Nonresponding animals were removed from the heat stimulus when reaction times exceeded 10 sec. to avoid the tail damage.
(§3) Drugs were injected 30 min prior to testing, unless otherwise indicated.
(§4) The animals were separated into two groups.
(§5) The ED50 values, their 95% confidence limits and significance of the potency ratio between two ED50 values were determined by the method of Litchfield and Wilcoxon, J.Pharmacol.Exp.Ther, 96:99-113 (1949), incorporated herein by reference.

The test system of data set [3] is mouse vas deferens. The conditions noted are these: cited from earlier work.
Data set [4] concerns guinea pig ileum. The conditions noted are these: cited from earlier work.
A short description of data set [5]: Addictiveness compared with morphine. The format is in vivo.
The test system of data set [6] is morphine tolerant mice. In words: Tail-flick analgesia, β-endorphin i.c.v. with or without dynorphin-(1-13) i.c.v., morphine tolerant group (Example II). It counts as in vivo. Particulars: for ED50 of β-endorphin: i.c.v. As for the experimental part:
as §1, §2, §3, §4, §5

Data set [7] has as its system naive mice. In words: Tail-flick analgesia, morphine s.c. with or without dynorphin-(1-13) i.c.v., naive group (Example III). The format is in vivo. The procedure:
as §1, §2, §3, §4, §5

In the case of dynorphin, the Effect on withdrawal result in data set [1] is “significantly reduced, or repressed, withdrawal”. In data set [2], the Own analgesic potency result is “no analgesic potency”. Moreover, in data set [3], the “Agonist properties in mouse vas deferens” value was “potent agonist properties”. In addition, in data set [4], the “Agonist properties in guinea pig ileum” value is listed as “potent agonist properties”.

For the compound `CC[C@H](C)[C@H](NC(=O)[C@H](CCCNC(=N)N)NC(=O)[C@H](CCCNC(=N)N)NC(=O)[C@H](CC(C)C)NC(=O)[C@H](Cc1ccccc1)NC(=O)CNC(=O)CNC(=O)[C@@H](N)Cc1ccc(O)cc1)C(=O)N[C@@H](CCCNC(=N)N)C(=O)N1CCC[C@H]1C(=O)N[C@@H](CCCCN)C(=O)N[C@@H](CC(C)C)C(=O)N[C@@H](CCCCN)C(=O)O` [dynorphin-(1-13)], the “Times less addictive than morphine” value in data set [5] was “at least 100 times”.

On to β-endorphin, for which the “ED50 of β-endorphin” value in data set [6] (in the presence of 10 μg dynorphin-(1-13)) is listed as “about 1.00 μg/mouse”; in data set [6] (in the presence of 20 μg dynorphin-(1-13)), “about 0.55 μg/mouse”. The “Analgesia (%)” value was found to be 10% in data set [6] (β-endorphin 1 μg/mouse i.c.v. alone), 40% in data set [6] (β-endorphin 2 μg/mouse i.c.v. alone) and 100% in data set [6] (β-endorphin 6 μg/mouse i.c.v. alone).

With `CN1CC[C@]23c4c5ccc(O)c4O[C@H]2[C@@H](O)C=C[C@H]3[C@H]1C5.O=S(=O)(O)O` [Morphine, morphine sulfate], the “Analgesia (%)” value is reported as 10% in data set [7] (morphine 2 mg/kg s.c. alone), 30% in data set [7] (morphine 4 mg/kg s.c. alone) and 80% in data set [7] (morphine 7.5 mg/kg s.c. alone).
